Laboratory results as given in PubChem BioAssay (NCI).
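Step 1: Grow cells in 96-well plates. Step 2: Expose to compound for 48 hours at 5 concentrations. Step 3: Interpolate endpoints linearly; if unreached, use highest concentration. Abbreviation: GI50, concentration required for 50% inhibition of growth. TGI denotes the concentration required for complete inhibition of growth.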

Key:
Assay in all cases: inhibition of tumour cell growth, NCI panel, 48 h
786-0 renal = test system: 786-0 renal
A498 renal = test system: A498 renal
A549 NSCLC = test system: A549 NSCLC
ACHN renal = test system: ACHN renal
BT-549 breast = test system: BT-549 breast
CAKI-1 renal = test system: CAKI-1 renal
CCRF-CEM leukemia = test system: CCRF-CEM leukemia
COLO 205 colon = test system: COLO 205 colon
DU-145 prostate = test system: DU-145 prostate
EKVX NSCLC = test system: EKVX NSCLC
HCT-116 colon = test system: HCT-116 colon
HCT-15 colon = test system: HCT-15 colon
HL-60(TB) leukemia = test system: HL-60(TB) leukemia
HOP-62 NSCLC = test system: HOP-62 NSCLC
HOP-92 NSCLC = test system: HOP-92 NSCLC
HS 578T breast = test system: HS 578T breast
HT29 colon = test system: HT29 colon
IGROV1 ovarian = test system: IGROV1 ovarian
K-562 leukemia = test system: K-562 leukemia
KM12 colon = test system: KM12 colon
LOX IMVI melanoma = test system: LOX IMVI melanoma
M14 melanoma = test system: M14 melanoma
MALME-3M melanoma = test system: MALME-3M melanoma
MCF7 breast = test system: MCF7 breast
MDA-MB-231 breast = test system: MDA-MB-231 breast
MDA-MB-435 = test system: MDA-MB-435
MOLT-4 leukemia = test system: MOLT-4 leukemia
NCI-H23 lung = test system: NCI-H23 lung
NCI-H460 lung = test system: NCI-H460 lung
NCI-H522 lung = test system: NCI-H522 lung
NCI/ADR-RES ovarian = test system: NCI/ADR-RES ovarian
OVCAR-3 ovarian = test system: OVCAR-3 ovarian
OVCAR-4 ovarian = test system: OVCAR-4 ovarian
OVCAR-5 ovarian = test system: OVCAR-5 ovarian
OVCAR-8 ovarian = test system: OVCAR-8 ovarian
PC-3 prostate = test system: PC-3 prostate
RPMI-8226 leukemia = test system: RPMI-8226 leukemia
RXF 393 renal = test system: RXF 393 renal
SF-268 CNS = test system: SF-268 CNS
SF-295 CNS = test system: SF-295 CNS
SF-539 CNS = test system: SF-539 CNS
SK-MEL-2 melanoma = test system: SK-MEL-2 melanoma
SK-MEL-28 melanoma = test system: SK-MEL-28 melanoma
SK-MEL-5 melanoma = test system: SK-MEL-5 melanoma
SK-OV-3 ovarian = test system: SK-OV-3 ovarian
SN12C renal = test system: SN12C renal
SNB-19 CNS = test system: SNB-19 CNS
SNB-75 CNS = test system: SNB-75 CNS
SR leukemia = test system: SR leukemia
SW-620 colon = test system: SW-620 colon
T-47D breast = test system: T-47D breast
TK-10 renal = test system: TK-10 renal
U251 CNS = test system: U251 CNS
UACC-257 melanoma = test system: UACC-257 melanoma
UACC-62 melanoma = test system: UACC-62 melanoma
UO-31 renal = test system: UO-31 renal

COc1ccc2cc(C(=O)/C=C/c3cccc(Cl)c3Cl)ccc2c1
GI50 (786-0 renal): 6.08 µM | TGI (786-0 renal): > 41.5 µM | GI50 (A498 renal): 18.1 µM | TGI (A498 renal): 32.1 µM | GI50 (A549 NSCLC): 10.9 µM | TGI (A549 NSCLC): > 100 µM | GI50 (ACHN renal): 3.76 µM | TGI (ACHN renal): 33 µM | GI50 (BT-549 breast): 12.5 µM | TGI (BT-549 breast): 48.9 µM | GI50 (CAKI-1 renal): 5.6 µM | TGI (CAKI-1 renal): 80.6 µM | GI50 (CCRF-CEM leukemia): 52.6 µM | TGI (CCRF-CEM leukemia): > 100 µM | GI50 (COLO 205 colon): 24.7 µM | TGI (COLO 205 colon): > 71.6 µM | GI50 (DU-145 prostate): 9.57 µM | TGI (DU-145 prostate): > 55.9 µM | GI50 (EKVX NSCLC): 20.1 µM | TGI (EKVX NSCLC): > 100 µM | GI50 (HCT-116 colon): 1 µM | TGI (HCT-116 colon): 19.6 µM | GI50 (HCT-15 colon): 2.13 µM | TGI (HCT-15 colon): > 34.2 µM | GI50 (HL-60(TB) leukemia): 24.2 µM | TGI (HL-60(TB) leukemia): > 100 µM | GI50 (HOP-62 NSCLC): 15.4 µM | TGI (HOP-62 NSCLC): 38.9 µM | GI50 (HOP-92 NSCLC): 22.1 µM | TGI (HOP-92 NSCLC): > 79.7 µM | GI50 (HS 578T breast): 50.5 µM | TGI (HS 578T breast): > 100 µM | GI50 (HT29 colon): 7.33 µM | TGI (HT29 colon): > 64.2 µM | GI50 (IGROV1 ovarian): 16.6 µM | TGI (IGROV1 ovarian): > 100 µM | GI50 (K-562 leukemia): 4.93 µM | TGI (K-562 leukemia): > 100 µM | GI50 (KM12 colon): 8.08 µM | TGI (KM12 colon): 64.3 µM | GI50 (LOX IMVI melanoma): 0.651 µM | TGI (LOX IMVI melanoma): > 24.9 µM | GI50 (M14 melanoma): 6.51 µM | TGI (M14 melanoma): > 100 µM | GI50 (MALME-3M melanoma): > 100 µM | TGI (MALME-3M melanoma): > 100 µM | GI50 (MCF7 breast): 1.28 µM | TGI (MCF7 breast): > 100 µM | GI50 (MDA-MB-231 breast): 12.2 µM | TGI (MDA-MB-231 breast): 39.6 µM | GI50 (MDA-MB-435): 1.44 µM | TGI (MDA-MB-435): 29.6 µM | GI50 (MOLT-4 leukemia): 27.5 µM | TGI (MOLT-4 leukemia): > 100 µM | GI50 (NCI-H23 lung): 6.42 µM | TGI (NCI-H23 lung): 29.4 µM | GI50 (NCI-H460 lung): 10.1 µM | TGI (NCI-H460 lung): > 100 µM | GI50 (NCI-H522 lung): 0.614 µM | TGI (NCI-H522 lung): > 24.6 µM | GI50 (NCI/ADR-RES ovarian): 12.7 µM | TGI (NCI/ADR-RES ovarian): > 100 µM | GI50 (OVCAR-3 ovarian): 7.87 µM | TGI (OVCAR-3 ovarian): 30.1 µM | GI50 (OVCAR-4 ovarian): 44.6 µM | TGI (OVCAR-4 ovarian): > 100 µM | GI50 (OVCAR-5 ovarian): 36.9 µM | TGI (OVCAR-5 ovarian): 95.2 µM | GI50 (OVCAR-8 ovarian): 14.9 µM | TGI (OVCAR-8 ovarian): > 100 µM | GI50 (PC-3 prostate): 12.4 µM | TGI (PC-3 prostate): > 81.9 µM | GI50 (RPMI-8226 leukemia): 5.56 µM | TGI (RPMI-8226 leukemia): > 46.8 µM | GI50 (RXF 393 renal): 2.79 µM | TGI (RXF 393 renal): 12.4 µM | GI50 (SF-268 CNS): 18.8 µM | TGI (SF-268 CNS): > 92.2 µM | GI50 (SF-295 CNS): 5.94 µM | TGI (SF-295 CNS): > 100 µM | GI50 (SF-539 CNS): 2.68 µM | TGI (SF-539 CNS): 12 µM | GI50 (SK-MEL-2 melanoma): > 50.9 µM | TGI (SK-MEL-2 melanoma): 98.3 µM | GI50 (SK-MEL-28 melanoma): 22.7 µM | TGI (SK-MEL-28 melanoma): > 71.9 µM | TGI (SK-MEL-5 melanoma): 4.3 µM | GI50 (SK-OV-3 ovarian): 24.7 µM | TGI (SK-OV-3 ovarian): > 62.4 µM | GI50 (SN12C renal): 5.67 µM | TGI (SN12C renal): 32.3 µM | GI50 (SNB-19 CNS): 26.2 µM | TGI (SNB-19 CNS): > 83.3 µM | GI50 (SNB-75 CNS): 28.4 µM | TGI (SNB-75 CNS): > 90.8 µM | GI50 (SR leukemia): 0.806 µM | TGI (SR leukemia): > 100 µM | GI50 (SW-620 colon): 1.32 µM | TGI (SW-620 colon): > 100 µM | GI50 (T-47D breast): > 59 µM | TGI (T-47D breast): > 100 µM | GI50 (TK-10 renal): 18.6 µM | TGI (TK-10 renal): > 86.3 µM | GI50 (U251 CNS): 6.19 µM | TGI (U251 CNS): 65.3 µM | GI50 (UACC-257 melanoma): 39.6 µM | TGI (UACC-257 melanoma): > 100 µM | GI50 (UACC-62 melanoma): 4.08 µM | TGI (UACC-62 melanoma): 28.4 µM | GI50 (UO-31 renal): 10.2 µM | TGI (UO-31 renal): > 53.2 µM
